Measured values: ChEMBL document CHEMBL1158007, “Steroidal glycosides from the bulbs of Allium jesdianum” (J Nat Prod, 1999)

Experiments:
Type in all cases: functional
[1] = test system: HL-60(TB); assay: Growth inhibition of human HL-60(TB) cells after 72 hrs by MTT assay; settings: HL-60, 72 h
[2] = test system: A549; assay: Growth inhibition of human A549 cells after 72 hrs by MTT assay; settings: A549, 72 h
[3] = test system: NCI-H226; assay: Growth inhibition of human NCI-H226 cells after 72 hrs by MTT assay; settings: NCI-H226, 72 h
[4] = test system: NCI-H460; assay: Growth inhibition of human NCI-H460 cells after 72 hrs by MTT assay; settings: NCI-H460, 72 h
[5] = test system: HCT-15; assay: Growth inhibition of human HCT-15 cells after 72 hrs by MTT assay; settings: HCT-15, 72 h
[6] = test system: KM12; assay: Growth inhibition of human KM12 cells after 72 hrs by MTT assay; settings: KM12, 72 h
[7] = test system: SW-620; assay: Growth inhibition of human SW620 cells after 72 hrs by MTT assay; settings: SW-620, 72 h
[8] = test system: SF-268; assay: Growth inhibition of human SF-268 cells after 72 hrs by MTT assay; settings: SF-268, 72 h
[9] = test system: SNB-19; assay: Growth inhibition of human SNB-19 cells after 72 hrs by MTT assay; settings: SNB-19, 72 h
[10] = test system: Malme-3M; assay: Growth inhibition of human MALME-3M cells after 72 hrs by MTT assay
[11] = test system: SK-MEL-2; assay: Growth inhibition of human SK-MEL-2 cells after 72 hrs by MTT assay; settings: SK-MEL-2, 72 h
[12] = Growth inhibition of human SK MEL28 cells after 72 hrs by MTT assay; settings: SK-MEL-28, 72 h
[13] = test system: SK-MEL-5; assay: Growth inhibition of human SK-MEL-5 cells after 72 hrs by MTT assay; settings: SK-MEL-5, 72 h
[14] = test system: UACC-62; assay: Growth inhibition of human UACC-62 cells after 72 hrs by MTT assay; settings: UACC-62, 72 h
[15] = test system: OVCAR-3; assay: Growth inhibition of human OVCAR-3 cells after 72 hrs by MTT assay; settings: OVCAR-3, 72 h
[16] = test system: OVCAR-5; assay: Growth inhibition of human OVCAR5 cells after 72 hrs by MTT assay; settings: OVCAR-5, 72 h
[17] = test system: OVCAR-8; assay: Growth inhibition of human OVCAR8 cells after 72 hrs by MTT assay; settings: OVCAR-8, 72 h
[18] = test system: SK-OV-3; assay: Growth inhibition of human SKOV3 cells after 72 hrs by MTT assay; settings: SK-OV-3, 72 h
[19] = test system: CAKI-1; assay: Growth inhibition of human Caki-1 cells after 72 hrs by MTT assay; settings: CAKI-1, 72 h
[20] = test system: NCI/ADR-RES; assay: Growth inhibition of human NCI/ADR-RES cells after 72 hrs by MTT assay
[21] = test system: MDA-MB-435; assay: Growth inhibition of human MDA-MB-435 cells after 72 hrs by MTT assay; settings: MDA-MB-435, 72 h
[22] = read-out: LC50 (the source's name)

Q: What does the source list for `C[C@@H]1CC[C@@]2(OC1)O[C@H]1C[C@H]3[C@@H]4CC[C@H]5C[C@@H](O[C@@H]6O[C@H](CO)[C@H](O[C@@H]7O[C@H](CO)[C@@H](O)[C@H](O[C@@H]8OC[C@@H](O)[C@H](O)[C@H]8O)[C@H]7O[C@@H]7O[C@H](CO)[C@@H](O)[C@H](O)[C@H]7O)[C@H](O)[C@H]6O)[C@H](O)C[C@]5(C)[C@H]4CC[C@]3(C)[C@H]1[C@@H]2C`?
A: GI50 [1]: 4.7 µM; TGI [1]: 48 µM; CC50 [1, 22]: < 100 µM; GI50 [2]: 0.35 µM; CC50 [2, 22]: < 100 µM; GI50 [3]: 15 µM; TGI [3]: 34 µM; CC50 [3, 22]: 76 µM; GI50 [4]: 1.3 µM; TGI [4]: 4.2 µM; CC50 [4, 22]: 16 µM; GI50 [5]: 1.4 µM; TGI [5]: 11 µM; CC50 [5, 22]: 46 µM; GI50 [6]: 8.9 µM; TGI [6]: 23 µM; CC50 [6, 22]: 55 µM; GI50 [7]: 1.7 µM; TGI [7]: 19 µM; CC50 [7, 22]: 78 µM; GI50 [8]: 13 µM; TGI [8]: 28 µM; CC50 [8, 22]: 59 µM; GI50 [9]: 12 µM; TGI [9]: 27 µM; CC50 [9, 22]: 60 µM; GI50 [10]: 19 µM; TGI [10]: 35 µM; CC50 [10, 22]: 69 µM; GI50 [11]: 5.5 µM; TGI [11]: 19 µM; CC50 [11, 22]: 48 µM; GI50 [12]: 15 µM; TGI [12]: 33 µM; CC50 [12, 22]: 71 µM; GI50 [13]: 4.1 µM; TGI [13]: 40 µM; CC50 [13, 22]: < 100 µM; GI50 [14]: 17 µM; TGI [14]: 42 µM; CC50 [14, 22]: < 100 µM; GI50 [15]: 2.6 µM; TGI [15]: 9.1 µM; CC50 [15, 22]: 35 µM; GI50 [16]: 5 µM; TGI [16]: 20 µM; CC50 [16, 22]: 59 µM; GI50 [17]: 2.5 µM; TGI [17]: 6.3 µM; CC50 [17, 22]: 47 µM; GI50 [18]: 13 µM; TGI [18]: 41 µM; CC50 [18, 22]: < 100 µM; GI50 [19]: 1.4 µM; TGI [19]: 18 µM; CC50 [19, 22]: < 100 µM; GI50 [20]: 2.8 µM; TGI [20]: 12 µM; CC50 [20, 22]: 46 µM; GI50 [21]: 11 µM; TGI [21]: 26 µM; CC50 [21, 22]: 66 µM
